For data set [1] the following is noted: C14 hydroxyl replaced by electron withdrawing group; background statement; cited from earlier work.
The test system of data set [2] is BxPC-3 pancreatic cancer cells. Put plainly: Inhibition of triptolide-AS1411 conjugate on the growth of pancreatic cancer cells in vitro (absorbance, MTT). The format is cell-based, human. The following applies: for Absorbance (24 h) / Absorbance (48 h): replicate wells. The procedure: 5 pancreatic cancer cell lines (MiaPaCa-2, PANC-1, BxPC-3, SW1990 and ASPC-1) used in the experiments were all purchased from Shanghai Cell Bank.
Fetal bovine serum and two antibiotics were added into the above media so as to form a final culture medium with a final content of 10% and 1%. Cells were incubated in an incubator at 37° C. and with 5% CO2.
Pancreatic cancer cells (MiaPaCa-2, PANC-1, BxPC-3, SW1990 and ASPC-1) were uniformly seeded into a 96-well plate with a low density (1×10^3˜1×10^4, depending on the specific cell lines, and the conditions were referred to Shanghai Cell Bank). After placed in incubator for adhering overnight, the used medium was replaced by a serum free medium containing drug. […] The cells were then incubated in the incubator at 37° C. and with 5% CO2. Cell activities were measured by MTT. The operation was performed for 4 times.

The subject of data set [3] is acute lymphoblastic leukemia T-cells (CCRF-CEM). The data set is described as follows: Inhibition of triptolide-SGC8C conjugate on the growth of cancer cells in vitro (absorbance, MTT). Type of data set: cell-based. The conditions noted are these: replicates, listed as TP. The procedure: Cell lines: acute lymphoblastic leukemia T-cells (CCRF-CEM) and hepatocyte (L-02).
Fetal bovine serum and two antibiotics were added into the above media so as to form a final culture medium with a final content of 10% and 1%. Cells were incubated in an incubator at 37° C. and with 5% CO2. Growth conditions of the cells were constantly observed and cell counting was performed, and all the experiments were carried out on cells in logarithmic growth phase.
Study on anti-cancer activity: acute lymphoblastic leukemia T-cells (CCRF-CEM) and liver cells (L-02) were uniformly seeded into a 96-well plate in a low density (1×10^3˜1×10^4, depending on the specific cell lines) and were placed in an incubator overnight for adhering, the used medium was replaced by a serum free medium containing drug. […] The cells were then cultured in the incubator at 37° C. and with 5% CO2. Cell activities were measured by MTT. The operations were repeated for 3 times.

On the set-up of data set [4]: species or system female nude mice. The following applies: female, nude, mouse, in vivo. An excerpt:
BxPC-3 cells in logarithmic growth phase were used.
Samples A and B in 2.2.2 were used.

Data set [5] concerns cancer cells. The following applies: background statement; cited from earlier work.
The conditions of data set [6]: background statement; cited from earlier work.

Structures are written as SMILES. Values joined by “and” are separate entries in the source; they are usually repeats but may differ in a detail not shown here. Equal entries are not always repeated.

As for `CC(C)[C@]12O[C@H]1[C@@H]1O[C@]13[C@]1(O[C@H]1C[C@H]1C4=C(CC[C@@]13C)C(=O)OC4)[C@@H]2F` [Compound M-1], in data set [1], the “cytotoxicity compared with TP” value was “greater than TP”.
As to `CC(C)[C@]12O[C@H]1[C@@H]1O[C@]13[C@]1(O[C@H]1C[C@H]1C4=C(CC[C@@]13C)C(=O)OC4)[C@H]2F` [Compound M-2], the “cytotoxicity compared with TP” value in data set [1] was “greater than TP”.
As for `CC(C)[C@]12O[C@H]1[C@@H]1O[C@]13[C@]1(O[C@H]1C[C@H]1C4=C(CC[C@@]13C)C(=O)OC4)[C@@H]2O` [Triptolide], the “Absorbance (24 h)” value in data set [2] (25 nM) was 0.745 and 0.764 and 0.718 and 0.690; in data set [2] (50 nM), 0.436 and 0.430 and 0.454 and 0.424; in data set [2] (100 nM), 0.393 and 0.397 and 0.403 and 0.364; in data set [2] (200 nM) it was 0.365 and 0.366 and 0.402 and 0.399. The “Absorbance (48 h)” value was 0.296 and 0.322 (2×) and 0.317 in data set [2] (25 nM); 0.219 and 0.223 and 0.231 and 0.220 in data set [2] (50 nM); 0.211 and 0.206 and 0.223 and 0.212 in data set [2] (100 nM); 0.200 and 0.218 and 0.222 and 0.213 in data set [2] (200 nM). The “effect on proliferation of pancreatic cancer cells” value in data set [2] (compared with blank references, concentration range 50 nM-200 nM, time and dose dependent) was “significantly inhibit”. Moreover, the “Absorbance (CCRF-CEM)” value in data set [3] (25 nM) is 0.7555 and 0.7582 and 0.755; in data set [3] (50 nM), 0.5502 and 0.5441 and 0.5447; in data set [3] (100 nM), 0.2608 and 0.2717 and 0.2802; in data set [3] (200 nM), 0.1902 (2×) and 0.18. In data set [4], the “time after administration at which drug concentration in blood reaches a maximum” value turned out to be 0.5 h. The “concentration that effectively inhibits the growth of the cancer cells” value in data set [5] is 2 to 10 ng/mL. Further, the solubility in water entry in data set [6] is recorded as “not soluble in water”.

These data come from patent US9809822B2 (priority 2013, dated 2017).
